{"source": "patent US8318950B2", "about": "“N-acyl amino acid derivatives, a method for the preparation thereof, a pharmaceutical composition and use thereof as anti-allergic, anti-inflammatory and hypolipidemic agents” (Otkrytoe Aktsionernoe Obschestvo-Otechestvennye Lekarstva, priority 2005, dated 2012)", "system": "Sephadex A-25 induced pneumonitis in Wistar rats", "assay": "Sephadex-induced (6-day) pneumonitis in rats", "type": "in vivo, rat", "description": "The Model of Sephadex-Induced (6-Day) Pneumonitis in Rats\nMale Wistar rats weighing 270-300 g were used in the tests.\nInflammation in the lungs was induced by a single inhalation of sephadex A-25 (hydrophilic powder with particle sizes from 20 to 80 μm) at dose 5 mg/kg using a dosing device which is a laboratory analog of the inhaler “Cyclohaler” (the Scientific-Research Institute for Pulmonology of the RF).\nSephadex A-25 at dose 5 mg per 1 kg body weight was administered to rats under ester anesthesia using an original dosing device for inhalation administering dry powders. Following administration of Sephadex A-25, Wistar rats rapidly recovered form anesthesia, and no peculiarities in their behavior and respiration character were noted. The substances in the form of a dry powder were administered by inhalation at dose 500 μg/kg 1 hour post Sephadex administration, then for 5 days in succession once daily at one and the same morning hours. The control was represented by two groups: a group of intact animals, and a group of rats administered once with Sephadex by inhalation.\nThe results of therapeutic action of pharmacological substances on pneumonitis development were assessed using morphological and morphometric parameters (volume density and alveolitis) 6 days post aerosol Sephadex administration.\nHistological examinations of the lungs stained by hematoxyline and eosine.\n4-5 μm thick histological lung slices were prepared wherein neutrophil number was calculated as well as volume density of alveolitis and emphysema was assessed using the Avtandilov's mesh [Avtandilov G. G., Vvedeniye v kolichestvennuyu pathologicheskuyu morphologiyu.//Moscow. “Meditsina” publishers. 1980. p. 203]. Morphometric examination of pulmonary lymphoid tissue was also carried out. To this end, micro preparations of the lungs were fixed according to the method of Beinenstock et al [Bienenstock J., Johnson N., Perey D. Y. E. Bronchial lymphoid tissue 1. Morphologic characteristics//Lab. Invest. 1973. v. 28 p. 693-698.] […] Volume density of alveolitis and emphysema was determined using the point calculation method.\nBroncho-alveolar wash-off was obtained in rats and guinea pigs under hexenal anesthesia by double washing the lungs through the trachea with 10 ml normal saline. Viability of cells was determined in the test with tryptane blue. Absolute number of cells in 1 ml (cytosis) was determined in the broncho-alveolar wash-off liquid (BAW) using the Goryaev's chamber. In the smears of the BAW liquid precipitate obtained using centrifugation at 200 g for 10 minutes and then stained according to Romanovskcy-Gimza, endopulmonary cytogram was calculated (in percent) [Avtsyn A. P., Lukomskij G. I., Romanova L. K. et al. Endopul'monal'naya cytogramma.//Sov. […]", "data": [{"smiles": "O=C(O)CCCC(=O)N[C@@H](Cc1c[nH]cn1)C(=O)O", "note": "[Compound IV, N^α-glutaryl-L-histidine]", "values": [{"measurement": "emphysema (histological examination of the lungs)", "setting": "500 μg/kg by inhalation", "result": "not practically detected"}, {"measurement": "infiltration of interalveolar septa with neutrophils", "setting": "500 μg/kg by inhalation", "result": "not noted"}, {"measurement": "prevalence of alveolitis (histological examination of the lungs)", "setting": "compared to the model group, 500 μg/kg by inhalation", "result": "significantly lower"}, {"measurement": "Absolute number of Macrophags in 1 μl BAW", "setting": "dry powder by inhalation 500 μg/kg", "result": "152.4 ± 18.5", "unit": "cells in 1 μl BAW"}]}]}
